# “Also recorded” adds a separate entry of the source.
# Experiments:
# adult cardiomyocytes = test: Histology after adult MI (TTC, TUNEL, pH3, Aurora B, BrdU, nucleation, γH2AX, trichrome, WGA, coronary casting, PECAM/α-SMA); assay type: in vivo, mouse
# [1] = tested on: adult mouse heart following myocardial infarction; test: Trichrome staining after adult MI, malonate treatment starting 1-week post-MI; details: malonate for 4 weeks starting 1-week post-MI, 6 weeks post-MI
# Text: Adult male mice (8-week-old) were subjected to MI by ligation of the proximal aspect of the LAD coronary artery. In brief, mice were anaesthetized using 3% isoflurane, then mice were intubated with PE50 tubing and placed on a mouse ventilator at 120-130 breaths per minute with a stroke volume of 150 microliters and maintained on 2% isoflurane. A left lateral incision through the fourth intercostal space was made to expose the heart. After visualizing the left coronary artery, 7-0 suture was placed through the myocardium in the anterolateral wall and secured as previously describer^17,18. Coronary artery entrapment was confirmed by observing blanching of the distal circulation (ventricular apex). ECG was used to confirm MI by noting ST segment changes. The lungs were over inflated, and the ribs and muscle layers were closed by absorbable sutures. The skin is closed by additional suturing using 6-0 nylon. The mouse was recovered from the anesthesia and extubated.
# Saline was used as a vehicle control for all experiments. […]
# Hearts were harvested and fixed in 4% paraformaldehyde (PFA) in PBS solution overnight at 4° C., processed for paraffin embedding, and sectioned in intervals. […] Scar size measurements were quantified from at least 3 sections of the heart from ligature to apex. ImageJ was used to quantify the fibrotic scar, and the average scar area for each heart was plotted. […]
# [2] = tested on: postnatal (P7) mouse heart following myocardial infarction; test: Echocardiography after myocardial infarction in P7 juvenile mice; details: for % EF (Ejection Fraction) / % FS (Fractional Shortening) / LV Mass (Left Ventricular Mass, Anatomical Weight) / LV Vol; d (Left Ventricular Volume; diastole) / LV Vol; s (Left Ventricular Volume; systole) / LVAWD (Left Ventricle Anterior Wall Thickness Diastole) / LVAWS (Left Ventricle Anterior Wall Thickness Systole) / LVIDD (Left Ventricle Internal Diameter Diastole) / LVIDS (Left Ventricle Internal Diameter Systole) / LVPWD (Left Ventricle Posterior Wall Thickness Diastole) / LVPWS (Left Ventricle Posterior Wall Thickness Systole): dimethyl malonate 100 mg/kg daily for 2 weeks from birth, mean ± SE
# Experimental: Neonatal mice at postnatal day 1 (P1) or day 7 (P7) were used for myocardial infarction (MI) surgery. Neonatal mice were subjected to MI surgeries as previously described. Briefly, neonates were anesthetized by hypothermia on ice. Lateral thoracotomy at the fourth intercostal space was performed by blunt dissection of the intercostal muscles after skin incision. A C-1 tapered needle attached to a 6-0 prolene suture (Ethicon Inc., Bridgewater, N.J.) was passed through the mid-ventricle below the left anterior descending coronary artery (LAD) and tied off to induce MI. The prolene suture was used to suture the ribs together and seal the chest wall incisions, and the skin was closed using adhesive glue (3M). The mice then were warmed on a heating pad until recovery. Sham-operated mice underwent the same procedure including hypothermic anesthesia, but not LAD ligation.
# Neonatal mice were weighed and injected daily with either saline, 100 mg/kg dimethyl succinate (Sigma), 100 mg/kg dimethyl malonate (Sigma), or 100 μg/kg Atpenin A5 (Enzo Life Sciences). Dimethyl succinate and dimethyl malonate were dissolved in saline. Stock solution of Atpenin A5 at 0.1 mg/ml was initially prepared by dissolving in DMSO (Sigma) and then further diluted with saline before injection. Saline was used as a vehicle control for all experiments.
# Transthoracic echocardiography was performed by using a Visual Sonics 770 ultrasonograph with a 25-MHz transducer (Visual Sonics, Toronto) as described previously^19. Mice were lightly anesthetized with 1% isoflurane and maintained on a heated platform. Two-dimensionally guided M-mode images from a parasternal long axis (PLAX) of the left ventricle (LV) were acquired at the tip of the papillary muscles. Wall thickness and chamber diameters were measured in both diastole and systole. Fractional shortening was calculated as (LVDd−LVDs)/LVDd×100, where LVDd is LV diameter in diastole and LVDs is LV diameter in systole. Ejection fraction was calculated as [(7.0/(2.4+LVDd)(LVDd)^3−(7.0/(2.4+LVDs)(LVDs)^3/(7.0/(2.4+LVDd)(LVDd)^3×100 and LV mass was calculated by using the formula [1.05×((Posterior Walldiastole+Anterior Walldiastole+LVDd)^3−(LVDd)^3)]. All parameters were measured over at least three consecutive cycles.
# We injected dimethyl malonate (100 mg/kg, daily) in neonatal mice directly after birth for 2 weeks with an MI performed once the mice reached P7. We then analyzed the hearts following injury to determine whether malonate results in prolongation of the neonatal regenerative window (FIG. 10A).
# [3] = tested on: tricarboxylic acid (TCA) cycle and glucose metabolism; test: LC-MS metabolite analysis of adult hearts
# Experimental: Saline was used as a vehicle control for all experiments. […] Adult mice were injected intraperitoneally daily with either saline or 100 mg/kg dimethyl malonate post-MI for 2 or 4 weeks.
# To analyze intracellular metabolites, metabolites were extracted with cold liquid chromatography-mass spectrometry (LC-MS) grade 3/1 butanol/methanol (v/v). The methanol layer was transferred to a new vial and samples were dried under nitrogen flow and subsequently dissolved in LC-MS grade water for LC-MS analysis methods. Protein pellets were removed by centrifugation. Samples were analyzed using a Thermo Q-Exactive mass spectrometer coupled to a Vanquish Horizon Ultra-High Performance Liquid Chromatograph (UHPLC). Metabolites were separated on a C18 (details below) at a 0.2 ml per min flow rate and 30° C. column temperature. […] The identification of metabolites reported was based on exact m/z and retention times, which were determined with chemical standards. Data were analyzed with Maven. Relative metabolite levels were normalized to internal standard Tryptophan (^13C11) and expressed relative to levels measured in the control group.
# To determine whether SDH inhibition regulates cardiomyocyte cell cycle activity by modulating succinate levels, we measured the levels of intracellular succinate by liquid chromatography-mass spectrometry (LC-MS). […]
# [4] = tested on: adult mouse heart following myocardial infarction; test: Echocardiography after adult myocardial infarction, malonate from within an hour post-MI for two weeks; assay type: in vivo; details: for % EF (Ejection Fraction) / % FS (Fractional Shortening) / LV Mass (Left Ventricular Mass, Anatomical Weight) / LV Vol; d (Left Ventricular Volume; diastole) / LV Vol; s (Left Ventricular Volume; systole) / LVAWD (Left Ventricle Anterior Wall Thickness Diastole) / LVAWS (Left Ventricle Anterior Wall Thickness Systole) / LVIDD (Left Ventricle Internal Diameter Diastole) / LVIDS (Left Ventricle Internal Diameter Systole) / LVPWD (Left Ventricle Posterior Wall Thickness Diastole) / LVPWS (Left Ventricle Posterior Wall Thickness Systole): adult mice, mean ± SE
# [5] = dimethyl malonate 100 mg/kg daily for 2 weeks, 28 days post-MI
# [6] = dimethyl malonate 100 mg/kg daily for 2 weeks, 28 days post-MI, vs controls
# [7] = dimethyl malonate 100 mg/kg daily, 14 days post-MI
# [8] = MI at P7 (n = 6), echo 21 days post-MI (P7D21)
# [9] = sham at P7 (SH, n = 6), echo at day 21 (P7D21)
# [10] = Baseline before surgery and dosing (same values as saline Table 4A)
# [11] = MI, 14 DPMI, dimethyl malonate 100 mg/kg intraperitoneally daily for 2 weeks post-MI
# [12] = MI, 28 DPMI, dimethyl malonate 100 mg/kg intraperitoneally daily for 2 weeks post-MI
# [13] = sham (SH), 14 DPMI, dimethyl malonate 100 mg/kg intraperitoneally daily for 2 weeks
# [14] = sham (SH), 28 DPMI, dimethyl malonate 100 mg/kg intraperitoneally daily for 2 weeks
compound,measurement,setting,value
"COC(=O)CC(=O)OC [Malonate, dimethyl malonate]","fibrosis (trichrome staining, quantification)","adult cardiomyocytes; dimethyl malonate 100 mg/kg daily for 2 weeks, 14 days post-MI, vs controls, difference was not significant",trend for reduction in fibrosis
same,"capillary density and vascular smooth muscle cells in the infarct zone (PECAM, α-SMA)",adult cardiomyocytes; [5],significant increase in capillary density and vascular smooth muscle cells
same,scar size (quantification of fibrosis),adult cardiomyocytes; [5],significant reduction of scar size
same,cardiomyocyte size (WGA staining),adult cardiomyocytes; [6],significant reduction in cardiomyocyte size
same,coronary artery formation / revascularization of the infarct zone (coronary casting),adult cardiomyocytes; [6],Re-vascularization in the infarcted zone was also induced; also recorded: remarkable formation of coronary arteries below the ligature site
same,heart weight to body weight ratios,"adult cardiomyocytes; dimethyl malonate 100 mg/kg daily for 2 weeks, 28 days post-MI, vs saline",No significant differences
same,cardiac structure (trichrome staining),"adult cardiomyocytes; dimethyl malonate 100 mg/kg daily for 2 weeks, 28 days post-MI, vs saline controls",complete restoration of the myocardium with minimal fibrosis; also recorded: remarkable restoration of the myocardium with minimal fibrosis
same,number of apoptotic cardiomyocytes (TUNEL staining),"adult cardiomyocytes; dimethyl malonate 100 mg/kg daily, 3- or 7-days post-MI, vs saline",no difference in the number of apoptotic cardiomyocytes
same,BrdU incorporation in cardiomyocytes,adult cardiomyocytes; [7],significant increase in 5-bromodeoxyuridine (BrdU) incorporation
same,number of binucleated cardiomyocytes,adult cardiomyocytes; [7],significant decrease in the number of binucleated cardiomyocytes
same,number of mononucleated cardiomyocytes,adult cardiomyocytes; [7],remarkable increase in the number of mononucleated cardiomyocytes
same,cardiomyocytes with γH2AX foci (DNA damage),"adult cardiomyocytes; dimethyl malonate 100 mg/kg daily, vs controls",significant decrease in the number of cardiomyocytes with γH2AX foci
same,"non-viable myocardium, myocardial necrosis (TTC viability stain)","adult cardiomyocytes; dimethyl malonate 100 mg/kg from within an hour post-MI, daily, 3 days post-MI, vs saline",no significant difference
same,gross morphology of the heart,"adult cardiomyocytes; dimethyl malonate 100 mg/kg intraperitoneally for two weeks, 28 days post-MI, vs controls",more muscularized ventricle
same,"vascular density in the infarct zone (MICROFIL casting, ImageJ region of interest)","adult cardiomyocytes; malonate, 28 days post-MI, vs controls",significant increase in vascular density in the infarct zone
same,scar size (fibrosis quantification),[1],significant reduction in scar size
same,% EF (Ejection Fraction),[2]; [8],69.751 ± 5.496%
same,% FS (Fractional Shortening),[2]; [8],38.443 ± 4.043%
same,"LV Mass (Left Ventricular Mass, Anatomical Weight)",[2]; [8],48.029 ± 9.293 mg
same,LV Vol; d (Left Ventricular Volume; diastole),[2]; [8],24.289 ± 5.739 µL
same,LV Vol; s (Left Ventricular Volume; systole),[2]; [8],8.741 ± 3.350 µL
same,LVAWD (Left Ventricle Anterior Wall Thickness Diastole),[2]; [8],0.702 ± 0.029 mm
same,LVAWS (Left Ventricle Anterior Wall Thickness Systole),[2]; [8],0.814 ± 0.023 mm
same,LVIDD (Left Ventricle Internal Diameter Diastole),[2]; [8],2.490 ± 0.269 mm
same,LVIDS (Left Ventricle Internal Diameter Systole),[2]; [8],1.578 ± 0.259 mm
same,LVPWD (Left Ventricle Posterior Wall Thickness Diastole),[2]; [8],0.684 ± 0.037 mm
same,LVPWS (Left Ventricle Posterior Wall Thickness Systole),[2]; [8],0.823 ± 0.022 mm
same,"cardiac function by echocardiography (EF, FS, LVIDD, LVIDS)","[2]; MI at P7, dimethyl malonate 100 mg/kg daily for 2 weeks from birth, 21 days post-MI",restored to normal levels
same,% EF (Ejection Fraction),[2]; [9],67.727 ± 3.762%
same,% FS (Fractional Shortening),[2]; [9],37.135 ± 2.848%
same,"LV Mass (Left Ventricular Mass, Anatomical Weight)",[2]; [9],62.439 ± 4.833 mg
same,LV Vol; d (Left Ventricular Volume; diastole),[2]; [9],43.309 ± 5.883 µL
same,LV Vol; s (Left Ventricular Volume; systole),[2]; [9],14.962 ± 3.612 µL
same,LVAWD (Left Ventricle Anterior Wall Thickness Diastole),[2]; [9],0.650 ± 0.025 mm
same,LVAWS (Left Ventricle Anterior Wall Thickness Systole),[2]; [9],0.820 ± 0.033 mm
same,LVIDD (Left Ventricle Internal Diameter Diastole),[2]; [9],3.240 ± 0.185 mm
same,LVIDS (Left Ventricle Internal Diameter Systole),[2]; [9],2.058 ± 0.204 mm
same,LVPWD (Left Ventricle Posterior Wall Thickness Diastole),[2]; [9],0.643 ± 0.026 mm
same,LVPWS (Left Ventricle Posterior Wall Thickness Systole),[2]; [9],0.818 ± 0.032 mm
same,intracellular succinate levels in the heart (LC-MS),"[3]; adult MI, dimethyl malonate 100 mg/kg daily, 14 days post-MI",significant increase in succinate levels
same,succinate levels (LC-MS metabolomics),"[3]; adult mice treated for 2 weeks with dimethyl malonate, vs saline",increase in succinate levels
same,cardiac function by echocardiography (EF and FS),"[4]; adult MI, dimethyl malonate 100 mg/kg daily for 2 weeks, 28 days post-MI, vs saline",complete restoration of cardiac function; also recorded: significant improvement of cardiac function
same,cardiac function by echocardiography,"[4]; adult MI, dimethyl malonate 100 mg/kg daily, 14 days post-MI, vs controls, difference was not significant",trending improvement in cardiac function
same,% EF (Ejection Fraction),[4]; [10],57.761 ± 0.698%
same,% FS (Fractional Shortening),[4]; [10],29.844 ± 0.434%
same,"LV Mass (Left Ventricular Mass, Anatomical Weight)",[4]; [10],78.043 ± 3.706 mg
same,LV Vol; d (Left Ventricular Volume; diastole),[4]; [10],59.761 ± 3.319 µL
same,LV Vol; s (Left Ventricular Volume; systole),[4]; [10],25.363 ± 1.705 µL
same,LVAWD (Left Ventricle Anterior Wall Thickness Diastole),[4]; [10],0.641 ± 0.006 mm
same,LVAWS (Left Ventricle Anterior Wall Thickness Systole),[4]; [10],0.767 ± 0.005 mm
same,LVIDD (Left Ventricle Internal Diameter Diastole),[4]; [10],3.731 ± 0.086 mm
same,LVIDS (Left Ventricle Internal Diameter Systole),[4]; [10],2.619 ± 0.072 mm
same,LVPWD (Left Ventricle Posterior Wall Thickness Diastole),[4]; [10],0.639 ± 0.006 mm
same,LVPWS (Left Ventricle Posterior Wall Thickness Systole),[4]; [10],0.769 ± 0.005 mm
same,% EF (Ejection Fraction),[4]; [11],44.421 ± 5.272%
same,% FS (Fractional Shortening),[4]; [11],22.034 ± 2.951%
same,"LV Mass (Left Ventricular Mass, Anatomical Weight)",[4]; [11],80.024 ± 8.731 mg
same,LV Vol; d (Left Ventricular Volume; diastole),[4]; [11],74.738 ± 12.392 µL
same,LV Vol; s (Left Ventricular Volume; systole),[4]; [11],44.249 ± 11.125 µL
same,LVAWD (Left Ventricle Anterior Wall Thickness Diastole),[4]; [11],0.583 ± 0.015 mm
same,LVAWS (Left Ventricle Anterior Wall Thickness Systole),[4]; [11],0.723 ± 0.020 mm
same,LVIDD (Left Ventricle Internal Diameter Diastole),[4]; [11],4.047 ± 0.283 mm
same,LVIDS (Left Ventricle Internal Diameter Systole),[4]; [11],3.188 ± 0.334 mm
same,LVPWD (Left Ventricle Posterior Wall Thickness Diastole),[4]; [11],0.578 ± 0.014 mm
same,LVPWS (Left Ventricle Posterior Wall Thickness Systole),[4]; [11],0.753 ± 0.016 mm
same,% EF (Ejection Fraction),[4]; [12],48.940 ± 5.707%
same,% FS (Fractional Shortening),[4]; [12],24.858 ± 3.214%
same,"LV Mass (Left Ventricular Mass, Anatomical Weight)",[4]; [12],83.201 ± 16.390 mg
same,LV Vol; d (Left Ventricular Volume; diastole),[4]; [12],84.656 ± 22.884 µL
same,LV Vol; s (Left Ventricular Volume; systole),[4]; [12],47.375 ± 16.164 µL
same,LVAWD (Left Ventricle Anterior Wall Thickness Diastole),[4]; [12],0.528 ± 0.033 mm
same,LVAWS (Left Ventricle Anterior Wall Thickness Systole),[4]; [12],0.693 ± 0.042 mm
same,LVIDD (Left Ventricle Internal Diameter Diastole),[4]; [12],4.183 ± 0.448 mm
same,LVIDS (Left Ventricle Internal Diameter Systole),[4]; [12],3.193 ± 0.451 mm
same,LVPWD (Left Ventricle Posterior Wall Thickness Diastole),[4]; [12],0.600 ± 0.020 mm
same,LVPWS (Left Ventricle Posterior Wall Thickness Systole),[4]; [12],0.755 ± 0.017 mm
same,% EF (Ejection Fraction),[4]; [13],52.458 ± 2.795%
same,% FS (Fractional Shortening),[4]; [13],26.613 ± 1.724%
same,"LV Mass (Left Ventricular Mass, Anatomical Weight)",[4]; [13],78.241 ± 13.192 mg
same,LV Vol; d (Left Ventricular Volume; diastole),[4]; [13],71.304 ± 10.106 µL
same,LV Vol; s (Left Ventricular Volume; systole),[4]; [13],33.993 ± 5.072 µL
same,LVAWD (Left Ventricle Anterior Wall Thickness Diastole),[4]; [13],0.575 ± 0.045 mm
same,LVAWS (Left Ventricle Anterior Wall Thickness Systole),[4]; [13],0.723 ± 0.047 mm
same,LVIDD (Left Ventricle Internal Diameter Diastole),[4]; [13],4.005 ± 0.234 mm
same,LVIDS (Left Ventricle Internal Diameter Systole),[4]; [13],2.940 ± 0.188 mm
same,LVPWD (Left Ventricle Posterior Wall Thickness Diastole),[4]; [13],0.575 ± 0.035 mm
same,LVPWS (Left Ventricle Posterior Wall Thickness Systole),[4]; [13],0.733 ± 0.046 mm
same,% EF (Ejection Fraction),[4]; [14],48.208 ± 3.686%
same,% FS (Fractional Shortening),[4]; [14],24.032 ± 2.173%
same,"LV Mass (Left Ventricular Mass, Anatomical Weight)",[4]; [14],82.315 ± 5.106 mg
same,LV Vol; d (Left Ventricular Volume; diastole),[4]; [14],68.006 ± 5.647 µL
same,LV Vol; s (Left Ventricular Volume; systole),[4]; [14],35.538 ± 4.993 µL
same,LVAWD (Left Ventricle Anterior Wall Thickness Diastole),[4]; [14],0.623 ± 0.014 mm
same,LVAWS (Left Ventricle Anterior Wall Thickness Systole),[4]; [14],0.755 ± 0.010 mm
same,LVIDD (Left Ventricle Internal Diameter Diastole),[4]; [14],3.940 ± 0.137 mm
same,LVIDS (Left Ventricle Internal Diameter Systole),[4]; [14],2.998 ± 0.170 mm
same,LVPWD (Left Ventricle Posterior Wall Thickness Diastole),[4]; [14],0.618 ± 0.013 mm
same,LVPWS (Left Ventricle Posterior Wall Thickness Systole),[4]; [14],0.753 ± 0.013 mm

# Reference: US11813239B2, “Compositions and methods for improving cardiac structure and/or function” (Wisconsin Alumni Research Foundation, priority 2020, dated 2023)
